In patent publication US12479847B2 (DANA-FARBER CANCER INSTITUTE, INC., priority 2019, dated 2025):
Read-outs that look alike come from different tables or passages of the source.

Key:
Test in all cases: KINOMEscan (ScanMAX) kinase profiling
Format in all cases: binding
panel of 468 kinases [1] = biological target: T1, panel of 468 kinases (Homo sapiens, UniProt P00519, F317L); details: 1 μM, read-out: % control
T1 construct: purchased KINOMEscan (ScanMAX) service

panel of 468 kinases [2] = biological target: T2, panel of 468 kinases (Homo sapiens, UniProt P00519, T315I); details: 1 μM, read-out: % control
T2 construct: purchased KINOMEscan (ScanMAX) service

panel of 468 kinases [3] = biological target: T3, panel of 468 kinases (Homo sapiens, UniProt P54646); details: AMPK-alpha2; 1 μM; read-out: % control
T3 construct: purchased KINOMEscan (ScanMAX) service
T3 sequence (P54646 whole entry): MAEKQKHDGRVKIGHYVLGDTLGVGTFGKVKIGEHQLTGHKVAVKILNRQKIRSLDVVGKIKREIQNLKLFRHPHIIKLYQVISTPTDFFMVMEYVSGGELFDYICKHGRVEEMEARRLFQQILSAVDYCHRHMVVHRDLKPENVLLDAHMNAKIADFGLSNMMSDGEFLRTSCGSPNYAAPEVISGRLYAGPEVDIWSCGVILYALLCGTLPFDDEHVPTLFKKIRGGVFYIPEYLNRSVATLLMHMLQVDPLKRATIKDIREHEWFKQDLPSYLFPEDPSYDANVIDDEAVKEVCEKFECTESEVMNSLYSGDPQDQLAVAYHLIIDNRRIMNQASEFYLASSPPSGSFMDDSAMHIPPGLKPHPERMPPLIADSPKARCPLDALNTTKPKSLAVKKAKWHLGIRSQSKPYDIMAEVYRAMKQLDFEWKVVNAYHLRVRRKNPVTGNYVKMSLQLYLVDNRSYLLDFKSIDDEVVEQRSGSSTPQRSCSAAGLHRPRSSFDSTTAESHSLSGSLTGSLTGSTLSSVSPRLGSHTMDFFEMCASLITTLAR

panel of 468 kinases [4] = biological target: T4, panel of 468 kinases (Homo sapiens, UniProt P80192); details: MLK1; 1 μM; read-out: % control
T4 construct: purchased KINOMEscan (ScanMAX) service
T4 sequence (P80192 whole entry): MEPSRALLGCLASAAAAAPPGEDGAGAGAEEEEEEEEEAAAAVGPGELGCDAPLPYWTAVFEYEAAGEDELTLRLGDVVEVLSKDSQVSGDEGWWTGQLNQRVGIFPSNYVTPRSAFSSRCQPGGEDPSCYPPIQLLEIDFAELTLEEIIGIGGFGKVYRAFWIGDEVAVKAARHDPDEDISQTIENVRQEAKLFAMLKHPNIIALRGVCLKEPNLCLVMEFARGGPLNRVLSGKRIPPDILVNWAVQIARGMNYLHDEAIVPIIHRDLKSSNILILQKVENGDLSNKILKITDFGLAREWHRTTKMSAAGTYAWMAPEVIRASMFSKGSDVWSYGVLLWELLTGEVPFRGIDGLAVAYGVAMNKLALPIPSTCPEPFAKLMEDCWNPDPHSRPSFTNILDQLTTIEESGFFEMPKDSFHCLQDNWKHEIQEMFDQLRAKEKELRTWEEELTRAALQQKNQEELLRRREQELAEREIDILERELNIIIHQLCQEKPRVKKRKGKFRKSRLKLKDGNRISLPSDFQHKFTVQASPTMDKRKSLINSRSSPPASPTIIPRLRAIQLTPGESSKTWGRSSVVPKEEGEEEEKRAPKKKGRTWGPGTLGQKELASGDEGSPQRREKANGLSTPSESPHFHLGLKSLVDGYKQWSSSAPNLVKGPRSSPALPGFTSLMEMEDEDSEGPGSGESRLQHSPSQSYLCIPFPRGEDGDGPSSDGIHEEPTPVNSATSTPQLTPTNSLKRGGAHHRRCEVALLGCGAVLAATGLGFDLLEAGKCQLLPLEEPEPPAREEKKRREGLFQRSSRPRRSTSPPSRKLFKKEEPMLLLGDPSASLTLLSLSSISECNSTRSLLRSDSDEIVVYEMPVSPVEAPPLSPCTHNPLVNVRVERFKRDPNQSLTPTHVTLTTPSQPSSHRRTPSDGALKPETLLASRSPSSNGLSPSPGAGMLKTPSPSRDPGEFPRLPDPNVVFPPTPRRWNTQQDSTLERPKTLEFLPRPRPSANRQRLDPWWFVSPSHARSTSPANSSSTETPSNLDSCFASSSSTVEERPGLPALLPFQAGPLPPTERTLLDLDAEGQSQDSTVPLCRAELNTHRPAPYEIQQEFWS

panel of 468 kinases [5] = biological target: T5, panel of 468 kinases (Homo sapiens, UniProt Q9P286); details: PAK7; 1 μM; read-out: % control
T5 construct: purchased KINOMEscan (ScanMAX) service
T5 sequence (Q9P286 whole entry): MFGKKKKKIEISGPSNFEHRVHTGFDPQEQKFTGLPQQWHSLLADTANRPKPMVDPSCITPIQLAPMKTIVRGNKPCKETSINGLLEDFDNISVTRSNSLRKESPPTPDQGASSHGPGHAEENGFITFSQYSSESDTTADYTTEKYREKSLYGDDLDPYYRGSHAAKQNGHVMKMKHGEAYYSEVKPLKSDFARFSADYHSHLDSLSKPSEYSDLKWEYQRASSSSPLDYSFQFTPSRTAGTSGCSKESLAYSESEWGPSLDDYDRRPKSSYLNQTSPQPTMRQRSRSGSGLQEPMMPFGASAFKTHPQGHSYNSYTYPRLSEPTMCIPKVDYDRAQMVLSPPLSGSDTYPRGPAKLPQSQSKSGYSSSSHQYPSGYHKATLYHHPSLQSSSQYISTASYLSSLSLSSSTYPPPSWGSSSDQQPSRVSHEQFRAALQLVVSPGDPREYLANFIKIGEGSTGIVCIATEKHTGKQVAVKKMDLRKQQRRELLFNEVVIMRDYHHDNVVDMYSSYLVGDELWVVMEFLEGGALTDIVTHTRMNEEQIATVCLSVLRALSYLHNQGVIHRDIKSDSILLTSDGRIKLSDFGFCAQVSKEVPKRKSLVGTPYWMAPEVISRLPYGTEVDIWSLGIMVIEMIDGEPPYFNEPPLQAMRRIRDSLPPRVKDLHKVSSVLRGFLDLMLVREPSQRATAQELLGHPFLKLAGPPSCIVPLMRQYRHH

panel of 468 kinases [6] = biological target: T6, panel of 468 kinases (Homo sapiens, UniProt Q16584); details: MLK3; 1 μM; read-out: % control
T6 construct: purchased KINOMEscan (ScanMAX) service
T6 sequence (Q16584 whole entry): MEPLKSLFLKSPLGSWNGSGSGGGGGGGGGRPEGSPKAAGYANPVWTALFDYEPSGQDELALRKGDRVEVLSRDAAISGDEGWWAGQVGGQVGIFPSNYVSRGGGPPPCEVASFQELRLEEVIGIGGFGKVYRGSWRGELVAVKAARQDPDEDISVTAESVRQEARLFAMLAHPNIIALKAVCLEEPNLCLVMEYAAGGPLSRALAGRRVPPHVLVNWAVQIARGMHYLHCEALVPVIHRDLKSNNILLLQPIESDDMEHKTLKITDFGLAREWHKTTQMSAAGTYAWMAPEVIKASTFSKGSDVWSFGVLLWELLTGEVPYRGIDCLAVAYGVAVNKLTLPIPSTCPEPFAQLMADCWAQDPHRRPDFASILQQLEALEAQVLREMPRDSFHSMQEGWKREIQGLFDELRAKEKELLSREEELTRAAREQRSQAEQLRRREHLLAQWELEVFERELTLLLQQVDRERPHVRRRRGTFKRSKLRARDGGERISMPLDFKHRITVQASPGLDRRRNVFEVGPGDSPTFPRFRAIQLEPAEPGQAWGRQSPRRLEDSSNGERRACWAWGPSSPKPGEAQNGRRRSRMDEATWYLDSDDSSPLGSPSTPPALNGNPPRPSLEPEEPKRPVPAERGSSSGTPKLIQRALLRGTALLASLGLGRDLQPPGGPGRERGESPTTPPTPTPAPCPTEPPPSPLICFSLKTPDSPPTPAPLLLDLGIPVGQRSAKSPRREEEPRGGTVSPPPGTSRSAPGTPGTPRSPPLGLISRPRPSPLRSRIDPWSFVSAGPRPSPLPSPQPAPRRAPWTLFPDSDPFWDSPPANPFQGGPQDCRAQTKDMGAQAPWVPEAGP

panel of 468 kinases [7] = biological target: T7, panel of 468 kinases (Homo sapiens, UniProt Q12852); details: DLK; 1 μM; read-out: % control
T7 construct: purchased KINOMEscan (ScanMAX) service
T7 sequence (Q12852 1-859): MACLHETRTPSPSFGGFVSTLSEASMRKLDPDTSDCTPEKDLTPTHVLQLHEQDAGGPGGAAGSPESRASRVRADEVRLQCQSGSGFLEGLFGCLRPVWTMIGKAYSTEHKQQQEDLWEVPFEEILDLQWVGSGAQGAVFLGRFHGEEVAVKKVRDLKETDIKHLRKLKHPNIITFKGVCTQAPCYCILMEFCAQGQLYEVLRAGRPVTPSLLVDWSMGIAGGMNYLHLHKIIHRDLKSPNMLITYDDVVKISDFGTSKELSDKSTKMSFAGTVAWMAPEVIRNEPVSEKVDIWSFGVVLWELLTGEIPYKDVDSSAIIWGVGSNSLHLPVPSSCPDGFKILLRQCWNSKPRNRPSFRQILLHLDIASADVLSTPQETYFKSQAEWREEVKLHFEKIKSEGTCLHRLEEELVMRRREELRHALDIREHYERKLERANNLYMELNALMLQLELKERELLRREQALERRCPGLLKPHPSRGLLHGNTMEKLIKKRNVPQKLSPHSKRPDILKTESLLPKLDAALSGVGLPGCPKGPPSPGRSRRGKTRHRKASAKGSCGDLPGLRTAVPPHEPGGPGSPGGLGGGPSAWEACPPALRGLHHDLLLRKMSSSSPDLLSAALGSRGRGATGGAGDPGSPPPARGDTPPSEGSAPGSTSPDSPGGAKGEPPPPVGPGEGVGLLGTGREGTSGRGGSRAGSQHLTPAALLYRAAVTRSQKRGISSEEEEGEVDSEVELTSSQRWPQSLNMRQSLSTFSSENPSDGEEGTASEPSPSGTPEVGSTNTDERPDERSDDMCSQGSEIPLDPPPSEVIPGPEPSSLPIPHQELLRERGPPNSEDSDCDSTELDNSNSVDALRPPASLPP

panel of 468 kinases [8] = biological target: T8, panel of 468 kinases (Homo sapiens, UniProt P08631); details: HCK; 1 μM; read-out: % control
T8 construct: purchased KINOMEscan (ScanMAX) service
T8 sequence (P08631 whole entry): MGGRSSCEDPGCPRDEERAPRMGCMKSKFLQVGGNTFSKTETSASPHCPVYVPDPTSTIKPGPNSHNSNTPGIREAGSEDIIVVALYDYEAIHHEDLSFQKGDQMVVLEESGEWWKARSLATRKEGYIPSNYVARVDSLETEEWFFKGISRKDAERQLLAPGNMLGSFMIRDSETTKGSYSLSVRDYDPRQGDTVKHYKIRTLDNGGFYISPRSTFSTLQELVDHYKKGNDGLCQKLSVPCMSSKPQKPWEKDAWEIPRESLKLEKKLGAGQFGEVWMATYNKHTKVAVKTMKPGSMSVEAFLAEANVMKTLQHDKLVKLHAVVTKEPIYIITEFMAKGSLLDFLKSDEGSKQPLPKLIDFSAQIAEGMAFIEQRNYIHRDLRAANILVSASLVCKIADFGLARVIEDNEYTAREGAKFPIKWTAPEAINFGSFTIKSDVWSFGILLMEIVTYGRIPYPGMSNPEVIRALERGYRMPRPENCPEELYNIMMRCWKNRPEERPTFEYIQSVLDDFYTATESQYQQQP

panel of 468 kinases [9] = biological target: T9, panel of 468 kinases (Homo sapiens, UniProt Q16832); details: DDR2; 1 μM; read-out: % control
T9 construct: purchased KINOMEscan (ScanMAX) service
T9 sequence (Q16832 22-855): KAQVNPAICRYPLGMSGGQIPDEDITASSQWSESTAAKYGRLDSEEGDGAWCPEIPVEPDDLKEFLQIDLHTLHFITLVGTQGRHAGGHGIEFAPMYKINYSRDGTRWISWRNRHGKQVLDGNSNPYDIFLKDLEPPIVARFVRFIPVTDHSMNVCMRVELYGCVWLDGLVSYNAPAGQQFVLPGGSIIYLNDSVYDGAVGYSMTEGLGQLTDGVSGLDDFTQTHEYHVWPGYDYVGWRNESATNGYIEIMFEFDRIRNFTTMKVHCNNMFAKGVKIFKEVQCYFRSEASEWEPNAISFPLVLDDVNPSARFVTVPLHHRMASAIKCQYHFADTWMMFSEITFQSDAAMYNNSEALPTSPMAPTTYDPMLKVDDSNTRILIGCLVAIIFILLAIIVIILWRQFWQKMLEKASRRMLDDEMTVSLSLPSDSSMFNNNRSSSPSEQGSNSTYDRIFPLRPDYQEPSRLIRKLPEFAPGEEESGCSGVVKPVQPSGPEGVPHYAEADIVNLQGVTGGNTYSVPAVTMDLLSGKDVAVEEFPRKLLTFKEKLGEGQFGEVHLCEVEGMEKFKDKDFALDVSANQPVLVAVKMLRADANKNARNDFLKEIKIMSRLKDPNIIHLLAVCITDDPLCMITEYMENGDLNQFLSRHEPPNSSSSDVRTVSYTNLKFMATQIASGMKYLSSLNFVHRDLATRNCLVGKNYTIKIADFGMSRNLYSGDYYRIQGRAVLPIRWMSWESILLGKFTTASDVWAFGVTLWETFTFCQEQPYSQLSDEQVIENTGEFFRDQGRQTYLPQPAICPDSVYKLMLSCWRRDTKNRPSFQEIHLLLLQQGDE

panel of 468 kinases [10] = biological target: T10, panel of 468 kinases (Homo sapiens, UniProt P31152); details: ERK4; 1 μM; read-out: % control
T10 construct: purchased KINOMEscan (ScanMAX) service
T10 sequence (P31152 whole entry): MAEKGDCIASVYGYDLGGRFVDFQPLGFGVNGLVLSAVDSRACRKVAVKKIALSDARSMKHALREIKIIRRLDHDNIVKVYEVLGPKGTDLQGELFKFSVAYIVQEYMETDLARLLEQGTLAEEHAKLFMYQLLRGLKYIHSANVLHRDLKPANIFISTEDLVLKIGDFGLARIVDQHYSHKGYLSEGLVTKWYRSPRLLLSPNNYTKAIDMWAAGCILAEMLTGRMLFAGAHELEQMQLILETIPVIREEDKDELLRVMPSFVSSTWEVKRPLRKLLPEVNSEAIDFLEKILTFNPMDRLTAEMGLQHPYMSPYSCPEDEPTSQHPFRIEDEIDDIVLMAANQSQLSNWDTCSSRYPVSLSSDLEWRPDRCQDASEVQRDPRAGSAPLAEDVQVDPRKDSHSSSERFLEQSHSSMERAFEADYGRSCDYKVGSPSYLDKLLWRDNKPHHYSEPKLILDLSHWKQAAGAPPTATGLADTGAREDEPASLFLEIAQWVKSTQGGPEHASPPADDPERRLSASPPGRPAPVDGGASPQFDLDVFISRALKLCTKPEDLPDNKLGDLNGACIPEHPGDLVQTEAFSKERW

| Compound | remaining binding at 1 µM (panel of 468 kinases [1]; ABL1(F317L)-nonphosphorylated) | remaining binding at 1 µM (panel of 468 kinases [1]; ABL1(F317L)-phosphorylated) | remaining binding at 1 µM (panel of 468 kinases [2]; ABL1(T315I)-nonphosphorylated) | remaining binding at 1 µM (panel of 468 kinases [2]; ABL1(T315I)-phosphorylated) | remaining binding at 1 µM (panel of 468 kinases [3]) | remaining binding at 1 µM (panel of 468 kinases [4]) | remaining binding at 1 µM (panel of 468 kinases [5]) | remaining binding at 1 µM (panel of 468 kinases [6]) | remaining binding at 1 µM (panel of 468 kinases [7]) | remaining binding at 1 µM (panel of 468 kinases [8]) | remaining binding at 1 µM (panel of 468 kinases [9]) | remaining binding at 1 µM (panel of 468 kinases [10]) |
| --- | --- | --- | --- | --- | --- | --- | --- | --- | --- | --- | --- | --- |
| CNc1nc(Nc2ccc(S(=O)(=O)N3CCC(N4CCOCC4)CC3)cc2OC)nc2[nH]cc(Cl)c12 [Compound 12, 5-chloro-N2-(2-methoxy-4-((4-morpholinopiperidin-1-yl)sulfonyl)phenyl)-N4-methyl-7H-pyrrolo[2,3-d]pyrimidine-2,4-diamine] | 100% | 70% | 94% | 100% | 82% | 100% | 100% | 93% | 95% | 98% | 84% | 100% |
| CNc1nc(Nc2ccc(C(=O)N3CCC(N4CCOCC4)CC3)c3c2OCO3)nc2[nH]cc(Cl)c12 [Compound 75, (7-((5-chloro-4-(methylamino)-7H-pyrrolo[2,3-d]pyrimidin-2-yl)amino)benzo[d][1,3]dioxol-4-yl)(4-morpholinopiperidin-1-yl)methanone] | 100% | 47% | 100% | 60% | 87% | 91% | 97% | 51% | 100% | 100% | 93% | 100% |
| CNc1nc(Nc2ccc(P3(=O)CCN(C4CCOCC4)CC3)cc2OC)nc2[nH]cc(Cl)c12 [Compound 77, 4-(4-((5-chloro-4-(methylamino)-7H-pyrrolo[2,3-d]pyrimidin-2-yl)amino)-3-methoxyphenyl)-1-(tetrahydro-2H-pyran-4-yl)-1,4-azaphosphinane 4-oxide] | 100% | 54% | 99% | 77% | 90% | 98% | 100% | 80% | 100% | 100% | 84% | 100% |
